According to patent US8546320B2, “Hsp9O-targeted anti-cancer chimeric peptide” (Kyoto University, priority 2008, dated 2013):
Where a SMILES comes first, the peptide text is derived from it.

What was measured:
Caki-1 = type: cell-based, human; conditions: Caki-1; for Anti-cancer activity (% relative to wild-type peptide) / Decrease in cell survival rate (% relative to wild-type peptide): wild-type peptide = 100%
Method: A total of 3×10^3 cells were inoculated per well on a 96 well plate and cultured in a medium containing 10% FBS for 24 hours, and incubated with 100 μl of a peptide having a gradual increase in concentration at 37° C. for 48 to 72 hours. The survival rate of the cells was measured by using WST-8 solution (Cell Count Reagent SF; Nacalai Tesque, Inc.).
(§1) Respective variant peptides were subjected to cell viability assay. Specifically, Caki-1 (American Type Culture Collection (Manassas, Va.) was inoculated in a total amount of 3×10^3 cells per well on a 96 well plate (Nunc™); the cells were cultured in a medium (DMEM (Tesque, Inc.) containing 10% FBS (fetal bovine serum; Biowest)) for 24 hours and incubated with 100 μl of a peptide having a gradual increase in concentration at 37° C. for 48 to 72 hours. The cell survival rate was measured by using WST-8 solution (Cell Count Reagent SF; Nacalai Tesque, Inc.) and compared with that of the wild-type Antp-TPR peptide.
as §1, with “medium” for “medium (DMEM (Tesque, Inc.)”, “FBS” for “FBS (fetal bovine serum; Biowest))”

cancer cells = assay: Cell viability assay, summary statements on cancer cells; type: cell-based; conditions: for effect compared with the wild-type protein (summary of mutations): single mutation in TPR or Antp region of Antp-TPR
U937 = assay: cells; type: cell-based, human; conditions: U937; for Cell Survival Rate (%): concentration not given; for Anti-cancer activity (% relative to wild-type peptide) / Decrease in cell survival rate (% relative to wild-type peptide): wild-type peptide = 100%
Method: A total of 3×10^3 cells per well were inoculated onto a 96 well plate, and incubated in a medium containing 10% FBS with 100 μl of a peptide diluted stepwise at 37° C. for 48 to 72 hours. The survival rate of the cells was measured by using WST-8 solution (Cell Count Reagent SF; Nacalai Tesque, Inc.).

## CC[C@H](C)[C@H](NC(=O)[C@H](CCCNC(=N)N)NC(=O)[C@H](C)NC(=O)[C@H](Cc1ccc(O)cc1)NC(=O)[C@H](C)NC(=O)[C@H](CCCCN)NC(=O)[C@H](CCCCN)NC(=O)[C@H](CCCCN)NC(=O)[C@H](Cc1c[nH]c2ccccc12)NC(=O)[C@H](CCCCN)NC(=O)[C@H](CS)NC(=O)[C@H](CCCNC(=N)N)NC(=O)[C@H](CCCNC(=N)N)NC(=O)[C@H](CC(N)=O)NC(=O)[C@H](CCC(N)=O)NC(=O)[C@H](Cc1ccccc1)NC(=O)[C@H](Cc1c[nH]c2ccccc12)NC(=O)[C@@H](NC(=O)[C@H](CCCCN)NC(=O)[C@@H](NC(=O)[C@H](CCC(N)=O)NC(=O)[C@@H](N)CCCNC(=N)N)[C@@H](C)CC)[C@@H](C)CC)C(=O)NCC(=O)N[C@@H](CC(N)=O)C(=O)N[C@@H](CO)C(=O)N[C@@H](Cc1ccc(O)cc1)C(=O)N[C@@H](Cc1ccccc1)C(=O)N[C@@H](CCCCN)C(=O)O [Antp M12C-TPR] (H-RQIKIWFQNRRCKWKKKAYARIGNSYFK-OH; N-terminus and C-terminus assumed)
Caki-1
  killing effect compared with the wild-type peptide: stronger than that of the wild-type peptide
  Anti-cancer activity (% relative to wild-type peptide): 102.68%
  Decrease in cell survival rate (% relative to wild-type peptide): 128.91%
Cancer cells
  effect compared with the wild-type protein (summary of mutations): effect higher than the wild-type protein

## CC[C@H](C)[C@H](NC(=O)[C@H](CCCNC(=N)N)NC(=O)[C@H](C)NC(=O)[C@H](Cc1ccc(O)cc1)NC(=O)[C@H](C)NC(=O)[C@H](CCCCN)NC(=O)[C@H](CCCNC(=N)N)NC(=O)[C@H](CCCCN)NC(=O)[C@H](Cc1c[nH]c2ccccc12)NC(=O)[C@H](CCCCN)NC(=O)[C@H](CCSC)NC(=O)[C@H](CCCNC(=N)N)NC(=O)[C@H](CCCNC(=N)N)NC(=O)[C@H](CC(N)=O)NC(=O)[C@H](CCC(N)=O)NC(=O)[C@H](Cc1ccccc1)NC(=O)[C@H](Cc1c[nH]c2ccccc12)NC(=O)[C@@H](NC(=O)[C@H](CCCCN)NC(=O)[C@@H](NC(=O)[C@H](CCC(N)=O)NC(=O)[C@@H](N)CCCNC(=N)N)[C@@H](C)CC)[C@@H](C)CC)C(=O)NCC(=O)N[C@@H](CC(N)=O)C(=O)N[C@@H](CO)C(=O)N[C@@H](Cc1ccc(O)cc1)C(=O)N[C@@H](Cc1ccccc1)C(=O)N[C@@H](CCCCN)C(=O)O [Antp K16R-TPR] (H-RQIKIWFQNRRMKWKRKAYARIGNSYFK-OH; N-terminus and C-terminus assumed)
Caki-1
  killing effect compared with the wild-type peptide: stronger than that of the wild-type peptide
  Anti-cancer activity (% relative to wild-type peptide): 110.26%
  Decrease in cell survival rate (% relative to wild-type peptide): 709.01%
Cancer cells
  effect compared with the wild-type protein (summary of mutations): effect higher than the wild-type protein

## CC[C@H](C)[C@H](NC(=O)[C@H](CCCNC(=N)N)NC(=O)[C@H](C)NC(=O)[C@H](Cc1ccc(O)cc1)NC(=O)[C@H](C)NC(=O)[C@H](CCCCN)NC(=O)[C@H](CCCCN)NC(=O)[C@H](CCCCN)NC(=O)[C@H](Cc1c[nH]c2ccccc12)NC(=O)[C@H](CCCNC(=N)N)NC(=O)[C@H](CCSC)NC(=O)[C@H](CCCNC(=N)N)NC(=O)[C@H](CCCNC(=N)N)NC(=O)[C@H](CC(N)=O)NC(=O)[C@H](CCC(N)=O)NC(=O)[C@H](Cc1ccccc1)NC(=O)[C@H](Cc1c[nH]c2ccccc12)NC(=O)[C@@H](NC(=O)[C@H](CCCCN)NC(=O)[C@@H](NC(=O)[C@H](CCC(N)=O)NC(=O)[C@@H](N)CCCNC(=N)N)[C@@H](C)CC)[C@@H](C)CC)C(=O)NCC(=O)N[C@@H](CC(N)=O)C(=O)N[C@@H](CO)C(=O)N[C@@H](Cc1ccc(O)cc1)C(=O)N[C@@H](Cc1ccccc1)C(=O)N[C@@H](CCCCN)C(=O)O [Antp K13R-TPR] (H-RQIKIWFQNRRMRWKKKAYARIGNSYFK-OH; N-terminus and C-terminus assumed)
Caki-1
  killing effect compared with the wild-type peptide: stronger than that of the wild-type peptide
  Anti-cancer activity (% relative to wild-type peptide): 108.64%
  Decrease in cell survival rate (% relative to wild-type peptide): 360.96%
Cancer cells
  effect compared with the wild-type protein (summary of mutations): effect similar to that of the wild-type protein

## RQIKIWFQNRRMKWKKKAYARAGNSYFK (Antp-TPR I6A peptide) [Antp-I6A]
Cancer cells
  effect compared with the wild-type protein (summary of mutations): effect higher than the wild-type protein
U937
  killing effect compared with the wild-type peptide: increase in effect
  Cell Survival Rate (%): 7.48%
  Anti-cancer activity (% relative to wild-type peptide): 120.54%
  Decrease in cell survival rate (% relative to wild-type peptide): 310.88%

## CC[C@H](C)[C@H](NC(=O)[C@H](CCCNC(=N)N)NC(=O)[C@H](C)NC(=O)[C@H](Cc1ccc(O)cc1)NC(=O)[C@H](C)NC(=O)[C@H](CCCCN)NC(=O)[C@H](C)NC(=O)[C@@H](NC(=O)[C@H](CCC(N)=O)NC(=O)[C@H](CCCNC(=N)N)NC(=O)[C@H](CCCCN)NC(=O)[C@H](CCCCN)NC(=O)[C@H](Cc1c[nH]c2ccccc12)NC(=O)[C@H](CCCCN)NC(=O)[C@H](CCSC)NC(=O)[C@H](CCCNC(=N)N)NC(=O)[C@H](CCCNC(=N)N)NC(=O)[C@H](CC(N)=O)NC(=O)[C@H](CCC(N)=O)NC(=O)[C@H](Cc1ccccc1)NC(=O)[C@H](Cc1c[nH]c2ccccc12)NC(=O)[C@@H](NC(=O)[C@H](CCCCN)NC(=O)[C@@H](NC(=O)[C@H](CCC(N)=O)NC(=O)[C@@H](N)CCCNC(=N)N)[C@@H](C)CC)[C@@H](C)CC)[C@@H](C)CC)C(=O)NCC(=O)N[C@@H](CC(N)=O)C(=O)N[C@@H](CO)C(=O)N[C@@H](Cc1ccc(O)cc1)C(=O)N[C@@H](Cc1ccccc1)C(=O)N[C@@H](CCCCN)C(=O)O [Antp-TPR slong] (H-RQIKIWFQNRRMKWKKRQIAKAYARIGNSYFK-OH; N-terminus and C-terminus assumed)
Caki-1
  killing effect compared with the wild-type peptide: retained the effect of wild-type peptide

## RQIKIWFQNRRMKWKKRKFSAAIGYNKY (Antp-scramble peptide) [reference compound]
U937
  Cell Survival Rate (%): 95.30%
  Anti-cancer activity (% relative to wild-type peptide): 6.13%
  Decrease in cell survival rate (% relative to wild-type peptide): 24.39%

## RQIKIWFQNRRMKWKKKAYAAIGNSYFK (Antp-TPR R5A peptide) [Antp-R5A]
Cancer cells
  effect compared with the wild-type protein (summary of mutations): effective but with a lower effect than the wild-type protein
U937
  Cell Survival Rate (%): 40.24%
  Anti-cancer activity (% relative to wild-type peptide): 77.85%
  Decrease in cell survival rate (% relative to wild-type peptide): 57.74%

## RQIKIWFQNRRMKWKKKGYGRIGNYYYK (Antp-TPR A2G,A4G,S9Y,F11Y peptide) [Antp-A2G, A4G, S9Y, F11Y]
U937
  killing effect compared with the wild-type peptide: increase in effect
  Cell Survival Rate (%): 21.14%
  Anti-cancer activity (% relative to wild-type peptide): 102.73%
  Decrease in cell survival rate (% relative to wild-type peptide): 109.90%

## CC[C@H](C)[C@H](NC(=O)[C@H](CCCCN)NC(=O)[C@@H](NC(=O)[C@H](CCC(N)=O)NC(=O)[C@@H](N)CCCNC(=N)N)[C@@H](C)CC)C(=O)N[C@@H](Cc1c[nH]c2ccccc12)C(=O)N[C@@H](Cc1ccccc1)C(=O)N[C@@H](CCC(N)=O)C(=O)N[C@@H](CC(N)=O)C(=O)N[C@@H](CCCNC(=N)N)C(=O)N[C@@H](CCCNC(=N)N)C(=O)N[C@@H](CCSC)C(=O)N[C@@H](CCCCN)C(=O)N[C@@H](Cc1c[nH]c2ccccc12)C(=O)N[C@@H](CCCCN)C(=O)N[C@@H](CCCCN)C(=O)N[C@@H](CCCCN)C(=O)N[C@@H](C)C(=O)N[C@@H](Cc1ccc(O)cc1)C(=O)N[C@@H](C)C(=O)N[C@@H](C)C(=O)N[C@@H](C)C(=O)NCC(=O)N[C@@H](CC(N)=O)C(=O)N[C@@H](CO)C(=O)N[C@@H](Cc1ccc(O)cc1)C(=O)N[C@@H](Cc1ccccc1)C(=O)N[C@@H](CCCCN)C(=O)O (H-RQIKIWFQNRRMKWKKKAYAAAGNSYFK-OH; N-terminus and C-terminus assumed)
Cancer cells
  cytotoxic activity / cell-killing effect: the cytotoxic activity was lower

## CC[C@H](C)[C@H](NC(=O)[C@H](CCCNC(=N)N)NC(=O)[C@H](C)NC(=O)[C@H](Cc1ccc(O)cc1)NC(=O)[C@H](C)NC(=O)[C@H](CCCCN)NC(=O)[C@H](CCCCN)NC(=O)[C@H](CCCCN)NC(=O)[C@H](Cc1c[nH]c2ccccc12)NC(=O)[C@H](CCCCN)NC(=O)[C@H](CCSC)NC(=O)[C@H](CCCNC(=N)N)NC(=O)[C@H](CCCNC(=N)N)NC(=O)[C@H](CC(N)=O)NC(=O)[C@H](CCC(N)=O)NC(=O)[C@H](Cc1ccccc1)NC(=O)[C@H](Cc1c[nH]c2ccccc12)NC(=O)[C@@H](NC(=O)[C@H](CCCCN)NC(=O)[C@@H](NC(=O)[C@H](CCC(N)=O)NC(=O)[C@@H](N)CCCNC(=N)N)[C@@H](C)CC)[C@@H](C)CC)C(=O)NCC(=O)N[C@@H](CC(N)=O)C(=O)N[C@@H](CO)C(=O)NCC(=O)NCC(=O)NCC(=O)O (H-RQIKIWFQNRRMKWKKKAYARIGNSGGG-OH)
Cancer cells
  cytotoxic activity / cell-killing effect: the cytotoxic activity was lower
